{"source": "paper PMC9948168", "about": "“Vanillin-Based Indolin-2-one Derivative Bearing a Pyridyl Moiety as a Promising Anti-Breast Cancer Agent via Anti-Estrogenic Activity” (ACS Omega, 2023)", "key": {"MCF-12A cells": {"test_system": "MCF-12A cells", "assay": "iCELLigence real-time cell analysis", "assay_type": "cell-based, human", "conditions": "for IC50: Homo sapiens, MCF-12A", "procedure": "Therefore, compound 6j was applied in serial doses (2, 5, 10, 20, 50, and 100 μM) to MCF-7 cells and parallel to MCF-12A cells to determine the selectivity and safety. The treatments were performed 24 h after seeding the cells on system-specific biosensor-based plates. A total of 120 h of analyses were monitored, with cell viability measurements taken every 15 min. […] In addition, the viability percentage values for each dose in these periods were calculated and are summarized in Table 3 for MCF-7 and Table 4 for MCF-12A. […] In these treatments, cells were not killed dramatically after adding the highest two doses of 6j (100 and 50 μM); instead, they entered the stationary phase.\nMCF-7 (Cat. no. HTB-22) (human estrogen receptor-positive breast cancer) and MCF-12A (Cat. no. CRL-10782) (human non-tumorigenic mammary epithelial) cell lines were obtained from the American Type Culture Collection (ATCC, Rockville, Maryland, USA). MCF-7 cells were maintained in Dulbecco’s modified Eagle’s medium (DMEM) (Biological Industries, Haemek, Israel) supplemented with 10% heat-inactivated fetal bovine serum (FBS) (Biowest, Nuaillé, France), 2 mM L-glutamine (Biological Industries, Haemek, Israel), 100 U/mL penicillin and 100 μg/mL streptomycin (Gibco, Waltham, MA, USA), and 2.5 μg/mL plasmocin (Invivogen, Toulouse, France) at 37 °C in a 5% CO2 humidified incubator. MCF-12A cells were cultured in a DMEM/F-12 Nutrient Mixture (Ham) (DMEM/F12 1:1 with HEPES and L-glutamine) (Gibco, Waltham, MA, USA) with 10% heat-inactivated FBS, 100 U/mL penicillin, 100 μg/mL streptomycin, and 10 μg/mL insulin (Humulin R, Lilly, Indianapolis, USA), 20 ng/mL epidermal growth factor (Abcam, Cambridge, UK), […] hydrocortisone (Dekort, Deva Ilac, Istanbul, Turkey), and 2.5 μg/mL plasmocin in a humidified atmosphere of 5% CO2 at 37 °C. The cells were routinely cultured in cell culture flasks and checked regularly under an inverted microscope. Cells reaching 80% confluency were passaged by treatment with 0.25% trypsin–EDTA. Total cell numbers were counted by the trypan blue dye exclusion method using a hemocytometer prior to the experiments.\nThe iCELLigence real-time cell analysis system was used to conduct a real-time and label-free examination of the activities of compound 6j on cells as we previously described.[62] In brief, following a background measurement with 200 μL of complete medium on iCELLigence E-plate L8, 100 μL of MCF-7 or MCF-12A cells was seeded at a density of 5.0 × 10^3 per well. During the 120 h monitoring, the system took impedance measurements via biosensors every 15 min. At the 24th h of incubation, the cells were treated with increasing concentrations of the 6j compound (2, 5, 10, 20, 50, and 100 μM) in duplicate. For cell culture experiments, compound 6j was dissolved in DMSO (Sigma, St. Louis, USA) at a stock concentration of 20 mM. For treatments, dilutions were prepared from 20 mM stock with a cell growth medium, with a final DMSO concentration of 0.1%. The medium containing 0.1% DMSO was also used as a negative control. […] Data were recorded by the iCELLigence software for 120 h and analyzed at the end of the study."}, "Solubility test by HPLC": {"assay": "Solubility test by HPLC", "assay_type": "physicochemical", "excerpt": "Studying drug solubility is a crucial part of the pre-formulation study. It is an integral phase that every drug has been through in any development process to determine its bioavailability and the best excipients used during formulation. The solubility of compound 6j was detected using HPLC in methanol, ethanol, and acetonitrile. […] With such results, compound 6j requires the addition of a surfactant to increase its solubility, especially in water. Different types of surfactants could be used to study their effect on increasing solubility in future plans. We see that this compound has the potential to go through the formulation study. […] Accordingly, the active compound 6j was analyzed with SwissADME. The physicochemical properties of compound 6j, molecular weight (392.83 g/mol), fraction Csp3 (0.09), rotatable bonds (5), H-bond acceptors (4), H-bond donors (1), molar refractivity (112.41), and topological polar surface area (TPSA) (60.45 Å^2) were measured. For lipophilicity, log Po/w (XLOGP3) (3.93), log Po/w (WLOGP) (3.98), log Po/w (MLOGP) (2.66), log Po/w (SILICOS-IT) (5.03) and consensus It was measured as log Po/w (3.75). […] The drug-likeness status of 6j was detected as suitable according to Lipinski, Ghose, Veber, Egan, and Muegge’s limited rules.[44] […]"}}, "data": [{"smiles": "COc1cc(C=C2C(=O)Nc3ccc(Cl)cc32)ccc1OCc1ccccn1", "note": "(mixture of isomers) [6j]", "values": [{"measurement": "IC50", "setting": "MCF-12A cells; 24 h after treatment", "result": 506, "unit": "µM"}, {"measurement": "IC50", "setting": "MCF-12A cells; 48 h after treatment", "result": 81.9, "unit": "µM"}, {"measurement": "IC50", "setting": "MCF-12A cells; 72 h after treatment", "result": 312, "unit": "µM"}, {"measurement": "IC50", "setting": "MCF-12A cells; 96 h after treatment", "result": 207, "unit": "µM"}, {"measurement": "safer profile MCF-12A versus MCF-7", "setting": "MCF-12A cells; at the 48th h, based on IC50 values", "result": 5, "unit": "times"}, {"measurement": "effects on MCF-12A healthy breast cells", "setting": "MCF-12A cells; first 24 h of treatment, any dose (2-100 μM)", "result": "no effects"}, {"measurement": "water solubility", "setting": "Solubility test by HPLC", "result": "did not detect any water solubility"}]}]}
